Patent EP0278686A1, “Pyridopyrimidines methods for their preparation and pharmaceutical formulations thereof” (THE WELLCOME FOUNDATION LIMITED, priority 1987, dated 1988)

Assays:
DHFR [1] = target: T1, DHFR (Escherichia coli, UniProt P0ABQ4); test: In vitro DHFR binding affinities (DHFR inhibition), E. coli enzyme; type: biochemical
T1 construct: DHFR isolated from bacterial and mammalian sources; endogenous in cells
Method: (§1) The inhibition by the title compound of DHFR isolated from bacterial and mammalian sources was determined using known procedures [B. Roth et al., J. Med. Chem., 24, 933 (1981)].

DHFR [2] = target: T2, DHFR (Rattus norvegicus, UniProt Q920D2); test: In vitro DHFR binding affinities (DHFR inhibition), rat liver enzyme; type: biochemical
T2 construct: DHFR isolated from bacterial and mammalian sources; from tissue; host or cells: rat liver
T2 sequence (Q920D2 1-187): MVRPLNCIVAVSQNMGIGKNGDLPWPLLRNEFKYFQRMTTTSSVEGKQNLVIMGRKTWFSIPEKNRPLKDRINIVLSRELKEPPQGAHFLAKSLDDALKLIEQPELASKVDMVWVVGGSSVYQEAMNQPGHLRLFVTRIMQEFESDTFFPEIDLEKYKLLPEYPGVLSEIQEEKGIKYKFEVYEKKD
Method: as §1

[3] = tested on: human T-cell line CCRF/CEM; test: In vitro cytotoxicity in cell culture, CCRF/CEM; type: cell-based; conditions: read-out: ED50 (the source's name)
Method: (§2) The cytotoxicity of the test compounds was determined in cell culture using the human T-cell line CCRF/CEM (ATCC CCL 119) and also the human breast cancer cell line MCF-7 [H.D. Soule, et al., J.. Nat. Cancer Inst., 51, 1409 (1973)].

[4] = tested on: human breast cancer cell line MCF-7; test: In vitro cytotoxicity in cell culture, MCF-7; type: cell-based; conditions: MCF7, Cell line MCF-7, cytotoxicity, read-out: ED50 (the source's name)
Method: as §2

SMILES	IC50 (DHFR [1]) [nM]	IC50 (DHFR [2]) [nM]	EC50 [3] [nM]	EC50 [4] [nM]
COc1ccc(O)c(Cc2cnc3nc(N)nc(N)c3c2C)c1 [Compound A, 2,4-diamino-5-methyl-6-(2-hydroxy-5-methoxybenzyl)pyrido[2,3-d] pyrimidine]	8	18	400	790
COc1ccc(O)cc1Cc1cnc2nc(N)nc(N)c2c1C [Compound B, 2,4-diamino-5-methyl-6-(5-hydroxy-2-methoxybenzyl)pyrido[2,3-d] pyrimidine]	16	12	80	750
